Laboratory results reported in patent publication US20220288075A1, “METHOD AND COMPOSITION FOR TREATING PAIN” (ACADEMIA SINICA, priority 2019, published 2022).

Tests used:
WT mice = test: LPC16:0 / lipid injection in wild-type mice, mechanical hypersensitivity by von Frey test; format: in vivo; conditions: for long-lasting hyperalgesia / priming-like effect after repeated intramuscular injection: two i.m. injections, 4.8 nmol, 10C
pERK = pERK expression of L4 DRG neurons after intramuscular LPC16:0 injection; format: in vivo, mice
Method: (§1) The chronic pain model was based on the repeated acid injection model protocol by Sluka et al.^44, and LPC16:0 was used for pain induction to replace acidic saline injection. Mice received in the left gastrocnemius muscle two intramuscular injections (1 day apart) of 10 μL neutral saline solution (pH 7.4; buffered with HEPES) containing vehicle (0.96% ethanol) or LPC16:0 (4.8 nmol; Avanti Polar Lipids Inc)^30. In the experiment of pharmacological inhibition of ASIC3, APETx2 (50 pmole; Alomone, Israel), a selective ASIC3 antagonist, was co-injected with LPC16:0.
Immunofluorescence staining. Animals were euthanized with urethane ([…], i.p.) and perfused with 4% paraformaldehyde (PFA) at P0. L4 dorsal root ganglia (DRG) were extracted and immediately post-fixed in 4% PFA for 60 min, and then replaced with 30% sucrose overnight. DRG were embedded in OCT compound and sectioned (12 μm) with a Leica cryostat. […] Images were acquired and quantified under a Carl Zeiss fluorescence microscope with a 10× objective lens. All images from the same experiment were acquired with the same settings, including fluorescence intensity, acquisition time, and image resolution. The immunoreactivity of pERK and the overlap between pERK and neuron markers (SP, CGRP, IB4 or N52) were assessed using Fiji (ImageJ, NIH) software, with the experimenter blinded to treatment and/or genotype. […]

[1] = test system: mice with repeated LPC16:0 injection; test: Repeated LPC16:0 injection model, drug effects by von Frey test; format: in vivo; conditions: for analgesic effect in repeated LPC16:0 injection model (von Frey): intraperitoneal administration, FIG. 10E
Method: as §1
(§2) Animals were placed on an elevated mesh platform, and a 0.2-mN von Frey filament was applied to the plantar surface of both hind paws. A positive response was defined as lifting, shaking, guarding, or licking paws when the stimulus was applied. For each paw, the filament was applied 5 times at 30-sec intervals.
Analgesic drugs: Pregabalin (0.3, 1, 3 or 10 mg/kg bodyweight, i.p.; Toronto Research Chemicals), morphine (0.3, 1, 3 or 10 mg/kg bodyweight, i.p.), diclofenac (1, 3 or 10 mg/kg bodyweight, i.p.; Sigma-Aldrich) or vehicle (0.9% saline) was administered, and the effect of each drug was evaluated by testing 6 mice. Sensory testing was carried out at 30 min and 1, 3 and 24 hours after injection of vehicle or drugs, with the experimenter blinded to the dose of test drugs. […] The 3Rs stand for Replace, Reduce, Refine and represent a responsible approach to animal testing. The goal is to replace animal experiments whenever possible. In addition, the aim is to keep the number of animal experiments as low as possible and to only use the necessary number of animals. Lastly, it is vital to ensure that the distress inflicted upon the animals is as low as possible. Therefore, all the pharmacological studies were conducted on post-RISS day 1 and day 4 (3 days apart, within 1 week after RISS). Mice of post-stress day 1 and day 4 were assigned randomly but equally to each tested dosage for counterbalance. During testing, the experimenter was blind to the individual treatment assignments.
Intrathecal injection was conducted through transcutaneous injection with a 30-gauge needle at the L5-6 dorsal spinal process under anesthesia of isoflurane (1.5%).

RISS mice = test: RISS (repeated and intermittent sound stress) model, sensory testing (von Frey, muscle withdrawal threshold, Hargreaves); format: in vivo; conditions: i.p. injection, post-RISS day 1 and 4; FIG. 1G
Source text: Sound stressors were applied as described^14, 43 with modification. Mice were placed (3 per cage) in a 20×30×15 cm bedding cage, which was kept 25 cm below a speaker, inside a 40×50×35 cm sound-insulated box. A speaker emitted pure tones at 5 frequencies (5, 11, 13, 15 and 19 kHz) with random amplitudes varied over time for each frequency (0, 20, 60, 90, and 100 dB sound). Each tone stimulus lasted for 5 or 10 sec in random order, and mice were stimulated continuously without interval. The sound stressors continued for 30 min as a set. In the original SS (sound stress) protocol, a set of 30-min stimuli was given once a day on days 1, 3, and 4 (FIG. 1A)^14. The RISS model intensified the stress protocol by increasing the stimulus frequency: a set of sound stimulus was repeated every 3 hours for 6 times overnight (from 16:00 to 10:00), followed by resting silence for 6 hours (from 10:00 to 16:00). The procedure was repeated on days 1, 3, and 4 as for the SS protocol. The control groups were placed in similar chambers for 4 days without stress exposure. Both groups of mice had access to food and water freely during the stress period. After the stimulus procedure, mice were returned to their original home cages in the animal care facility. In both the SS and RISS protocols, the day after completing the stress stimuli is called P0; the post-stress day 1, P1; and so on. In the experimental design of the […] single-day stimuli of intermittent SS (SISS), the day after SISS is called P′0; the post-stress day 1, P′1; and so on.
as §2
Mice were placed individually in Acrylic cubicles mounted on a glass surface maintained at 30° C. The test was performed after acclimatization. The thermal stimulus of the radiant heat was then applied to the plantar surface of each hind paw. Each mouse was tested in three sequential trials with an interval of 2-3 min. The assay cutoff was set at 30 sec to prevent tissue damage. Paw withdrawal latencies were calculated as the mean of three measures.
Muscle withdrawal thresholds were evaluated as described^46. […]
Analgesic drugs: Pregabalin (0.3, 1, 3 or 10 mg/kg bodyweight, i.p.; Toronto Research Chemicals), morphine (0.3, 1, 3 or 10 mg/kg bodyweight, i.p.), diclofenac (1, 3 or 10 mg/kg bodyweight, i.p.; Sigma-Aldrich) or vehicle (0.9% saline) was administered, and the effect of each drug was evaluated by testing 6 mice. […]

Compound	long-lasting hyperalgesia / priming-like effect after repeated intramuscular injection (WT mice; FIG. 3J)	analgesic effect in repeated LPC16:0 injection model (von Frey) [1]	analgesic effect on RISS-induced hyperalgesia (mechanical, muscle, thermal) (RISS mice)	further results
CCCCCCCCCCCCCCCC(=O)OC[C@@H](O)COP(=O)([O-])OCC[N+](C)(C)C [LPC16:0, lysophosphatidylcholine (LPC) 16:0]	induced long-lasting hyperalgesic changes	–	–	hyperalgesic responses after intramuscular injection, dose dependence (WT mice; 4.8, 1.6 and 0.48 nmol i.m., FIG. 3I): dose-dependently evoked hyperalgesic responses; hyperalgesia after single intramuscular injection (WT mice; single i.m. injection, FIG. 3J): induced transient bilateral hyperalgesia; hyperalgesia after repeated intraplantar injection (WT mice; two intraplantar injections, 4.8 nmole, FIG. 3J right): only induced transient hyperalgesia; pERK expression in L4 DRG neurons after LPC injection vs vehicle (pERK; i.m. injection, FIG. 10A, 10B): increased
CCCCCCCCCCCCCCCCCC(=O)OC[C@@H](O)COP(=O)([O-])OCC[N+](C)(C)C [LPC18:0]	not observed	–	–	–
CCCCCCCCCCCCC/C=C/[C@@H](O)[C@H](COP(=O)([O-])OCC[N+](C)(C)C)NC(=O)CCCCCCCCCCCCCCCCC [SM(d18:1/18:0)]	not observed	–	–	–
N#CC(=C(/N)Sc1ccccc1N)/C(C#N)=C(\N)Sc1ccccc1N [U0126]	–	–	–	LPC16:0-induced acute hyperalgesia ([1]; mouse, in vivo): prevented; chronic hyperalgesia induced by the second LPC16:0 injection ([1]; mouse, in vivo): impeded the development of chronic hyperalgesia
O=C(O)Cc1ccccc1Nc1c(Cl)cccc1Cl [diclofenac]	–	not	no significant analgesic effects	–
CN1CC[C@]23c4c5ccc(O)c4O[C@H]2[C@@H](O)C=C[C@H]3[C@H]1C5 [morphine]	–	not	no significant analgesic effects	–
CC(C)C[C@H](CN)CC(=O)O [pregabalin]	–	responded	dose-dependently reversed hyperalgesia	–
APETx2	–	–	–	chronic hypersensitivity after repeated LPC16:0 injection ([1]; APETx2 50 pmole co-injected i.m. with LPC16:0, FIG. 3K left): significantly reduced; transient (acute) hyperalgesia after LPC16:0 injection ([1]; APETx2 co-injected i.m. with LPC16:0, vs vehicle, FIG. 3K left): transient hyperalgesia was observed; LPC16:0 injection-induced pERK expression in DRG neurons (pERK; APETx2 co-injected with LPC16:0, FIG. 10F, 10G): reduced
